Reference: PubChem BioAssay AID328 (DTP/NCI, 2004)
Several values for one entry are separate records, joined by “and”; a condition that tells them apart may be missing. Equal values may be shown once. Toxic doses and inconclusive results are not listed.

Test system: BDF1 mice, P388 leukemia ip, median survival T/C
Assay: NCI In Vivo Anticancer Drug Screen. Data for tumor model P388 Leukemia (intraperitoneal) in B6D2F1 (BDF1) mice
Conditions: endpoint: median survival time, higher = longer survival
How it was run: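 Vehicle-dosed animals serve as the reference; survival of compound-dosed, tumour-implanted mice is divided by it.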

[1] = dose: 50.0 mg/kg/injection, schedule: Q01DX009 (ip), vehicle: saline with Tween-80
[2] = dose: 100.0 mg/kg/injection, schedule: Q01DX009 (ip), vehicle: saline with Tween-80
[3] = dose: 100.0 mg/kg/injection, schedule: Q04DX003 (ip), vehicle: saline with Tween-80
[4] = dose: 200.0 mg/kg/injection, schedule: Q01DX009 (ip), vehicle: saline with Tween-80
[5] = dose: 200.0 mg/kg/injection, schedule: Q04DX003 (ip), vehicle: saline with Tween-80
[6] = dose: 400.0 mg/kg/injection, schedule: Q04DX003 (ip), vehicle: saline with Tween-80
[7] = dose: 50.0 mg/kg/injection, schedule: Q01DX009 (ip), vehicle: saline
[8] = dose: 100.0 mg/kg/injection, schedule: Q01DX009 (ip), vehicle: saline
[9] = dose: 25.0 mg/kg/injection, schedule: Q01DX009 (ip), vehicle: saline
[10] = dose: 50.0 mg/kg/injection, schedule: Q04DX003 (ip), vehicle: saline
[11] = dose: 100.0 mg/kg/injection, schedule: Q04DX003 (ip), vehicle: saline
[12] = dose: 200.0 mg/kg/injection, schedule: Q04DX003 (ip), vehicle: saline
[13] = dose: 200.0 mg/kg/injection, schedule: Q01DX009 (ip), vehicle: saline
[14] = dose: 400.0 mg/kg/injection, schedule: Q01DX009 (ip), vehicle: saline

NC(Cc1ccc(N(CCCl)CCCl)cc1)C(=O)O (centres undefined)
T/C (dose: 0.5 mg/kg/injection, schedule: Q01DX009 (ip), vehicle: Klucel (hydroxypropylcellulose) (HPC)): 179 % of control
T/C (dose: 1.0 mg/kg/injection, schedule: Q01DX009 (ip), vehicle: Klucel (hydroxypropylcellulose) (HPC)): 222 % of control
T/C (dose: 1.25 mg/kg/injection, schedule: Q01DX010 (ip), vehicle: saline): 181 % of control and 208 % of control
T/C (dose: 2.0 mg/kg/injection, schedule: Q01DX009 (ip), vehicle: Klucel (hydroxypropylcellulose) (HPC)): 239 % of control
T/C (dose: 2.0 mg/kg/injection, schedule: Q01DX010 (ip), vehicle: other): 300 % of control
T/C (dose: 2.5 mg/kg/injection, schedule: Q01DX010 (ip), vehicle: saline): 209 % of control and 216 % of control
T/C (dose: 4.0 mg/kg/injection, schedule: Q01DX009 (ip), vehicle: Klucel (hydroxypropylcellulose) (HPC)): 256 % of control
T/C (dose: 4.0 mg/kg/injection, schedule: Q01DX010 (ip), vehicle: other): 250 % of control
T/C (dose: 5.0 mg/kg/injection, schedule: Q01DX010 (ip), vehicle: saline): 233 % of control and 286 % of control
T/C (dose: 8.0 mg/kg/injection, schedule: Q01DX010 (ip), vehicle: other): 113 % of control
T/C (dose: 10.0 mg/kg/injection, schedule: Q01DX010 (ip), vehicle: saline): 100 % of control
T/C (dose: 16.0 mg/kg/injection, schedule: Q01DX010 (ip), vehicle: other): 90 % of control

CCOc1cccc(/C=N/n2c(-c3ccccc3Cl)nc3ccccc3c2=O)c1O
T/C [1]: 90 % of control
T/C [2]: 87 % of control

O=[N+]([O-])c1ccc(Sc2cccs2)c([N+](=O)[O-])c1
T/C [2]: 100 % of control
T/C [3]: 104 % of control
T/C [4]: 95 % of control
T/C [5]: 95 % of control
T/C (dose: 400.0 mg/kg/injection, schedule: Q01DX009 (ip), vehicle: saline with Tween-80): 108 % of control
T/C [6]: 100 % of control

O=C(O)c1cc(-c2cccc3ccccc23)nc2cc3ccccc3cc12
T/C [2]: 99 % of control
T/C [4]: 108 % of control

Oc1c(I)cc(Cl)c2cccnc12
T/C (dose: 12.5 mg/kg/injection, schedule: Q01DX009 (ip), vehicle: Klucel (hydroxypropylcellulose) (HPC)): 115 % of control
T/C (dose: 25.0 mg/kg/injection, schedule: Q01DX009 (ip), vehicle: Klucel (hydroxypropylcellulose) (HPC)): 115 % of control
T/C (dose: 50.0 mg/kg/injection, schedule: Q01DX009 (ip), vehicle: Klucel (hydroxypropylcellulose) (HPC)): 120 % of control

CCN(C(=O)Nc1ccccc1)c1ccccc1
T/C (dose: 100.0 mg/kg/injection, schedule: Q01DX001 (ip), vehicle: saline with Tween-80): 104 % of control
T/C (dose: 200.0 mg/kg/injection, schedule: Q01DX001 (ip), vehicle: saline with Tween-80): 90 % of control
T/C (dose: 400.0 mg/kg/injection, schedule: Q01DX001 (ip), vehicle: saline with Tween-80): 95 % of control

CC(C)(C)NCC(O)c1cc(C(F)(F)F)nc2c(C(F)(F)F)cccc12 (centres undefined)
T/C [1]: 100 % of control
T/C [2]: 100 % of control
T/C [4]: 97 % of control

Cn1nnnc1N/N=C(\Br)c1ccccc1
T/C (dose: 25.0 mg/kg/injection, schedule: Q01DX009 (ip), vehicle: saline with Tween-80): 110 % of control
T/C [1]: 105 % of control
T/C [2]: 120 % of control
T/C [3]: 104 % of control
T/C [4]: 120 % of control
T/C [5]: 95 % of control
T/C [6]: 90 % of control

CC(C)=C=CCN(C)Cc1ccccc1
T/C [7]: 99 % of control
T/C [8]: 103 % of control

Cl
T/C (dose: 0.62 mg/kg/injection, schedule: Q01DX009 (ip), vehicle: water): 100 % of control
T/C (dose: 1.25 mg/kg/injection, schedule: Q01DX009 (ip), vehicle: water): 90 % of control
T/C (dose: 2.5 mg/kg/injection, schedule: Q01DX009 (ip), vehicle: water): 104 % of control
T/C (dose: 5.0 mg/kg/injection, schedule: Q01DX009 (ip), vehicle: water): 95 % of control
T/C (dose: 10.0 mg/kg/injection, schedule: Q01DX009 (ip), vehicle: water): 100 % of control
T/C (dose: 20.0 mg/kg/injection, schedule: Q01DX009 (ip), vehicle: water): 100 % of control
T/C (dose: 25.0 mg/kg/injection, schedule: Q01DX009 (ip), vehicle: water): 90 % of control
T/C (dose: 50.0 mg/kg/injection, schedule: Q01DX009 (ip), vehicle: water): 104 % of control

CC(C)N(C)C(C)(C)CO
T/C (dose: 50.0 mg/kg/injection, schedule: Q01DX001 (ip), vehicle: saline): 100 % of control
T/C (dose: 100.0 mg/kg/injection, schedule: Q01DX001 (ip), vehicle: saline): 100 % of control
T/C (dose: 200.0 mg/kg/injection, schedule: Q01DX001 (ip), vehicle: saline): 100 % of control

O=[N+]([O-])c1ccc2nc3c(nc2c1)-c1cccc2cccc-3c12
T/C [3]: 91 % of control
T/C [5]: 100 % of control
T/C [6]: 91 % of control

CC1(C)CC(=O)c2ccccc21
T/C [9]: 99 % of control
T/C [7]: 115 % of control
T/C [10]: 102 % of control
T/C [8]: 95 % of control
T/C [11]: 100 % of control
T/C [12]: 109 % of control

O=c1[nH]cc(I)cc1I
T/C [5]: 100 % of control
T/C [6]: 100 % of control

ClC1C2c3ccccc3C(C1Cl)[n+]1ccccc12 (centres undefined)
T/C (dose: 8.75 mg/kg/injection, schedule: Q01DX009 (ip), vehicle: Klucel (hydroxypropylcellulose) (HPC)): 100 % of control
T/C (dose: 12.5 mg/kg/injection, schedule: Q04DX003 (ip), vehicle: Klucel (hydroxypropylcellulose) (HPC)): 100 % of control
T/C (dose: 17.5 mg/kg/injection, schedule: Q01DX009 (ip), vehicle: Klucel (hydroxypropylcellulose) (HPC)): 100 % of control
T/C (dose: 25.0 mg/kg/injection, schedule: Q04DX003 (ip), vehicle: Klucel (hydroxypropylcellulose) (HPC)): 95 % of control

O/N=C/C=N/O.O/N=C/C=N/O.[Cl][Rh][Cl]
T/C [9]: 99 % of control
T/C [7]: 94 % of control
T/C [8]: 108 % of control
T/C [13]: 100 % of control
T/C [14]: 91 % of control

OC/C=[CH]\[Sn]([c]1ccccc1)([c]1ccccc1)[c]1ccccc1
T/C [1]: 89 % of control
T/C [2]: 115 % of control
T/C [4]: 106 % of control

COc1c(C)c2c(c(O)c1C/C=C(\C)CCC(=O)O)C(=O)OC2
T/C (dose: 25.0 mg/kg/injection, schedule: Q01DX010 (ip), vehicle: saline): 112 % of control and 100 % of control
T/C (dose: 50.0 mg/kg/injection, schedule: Q01DX010 (ip), vehicle: saline): 104 % of control and 118 % of control
T/C (dose: 100.0 mg/kg/injection, schedule: Q01DX010 (ip), vehicle: saline): 116 % of control and 100 % of control
T/C (dose: 100.0 mg/kg/injection, schedule: Q04DX002 (ip), vehicle: Klucel (hydroxypropylcellulose) (HPC)): 100 % of control
T/C (dose: 200.0 mg/kg/injection, schedule: Q01DX010 (ip), vehicle: saline): 100 % of control and 118 % of control
T/C (dose: 200.0 mg/kg/injection, schedule: Q04DX002 (ip), vehicle: Klucel (hydroxypropylcellulose) (HPC)): 100 % of control
T/C (dose: 400.0 mg/kg/injection, schedule: Q04DX002 (ip), vehicle: Klucel (hydroxypropylcellulose) (HPC)): 116 % of control

CC(=O)Oc1ccc(OC(C)=O)c2c1CC1(C)OC1(C)C2 (centres undefined)
T/C (dose: 1.56 mg/kg/injection, schedule: Q01DX009 (ip), vehicle: saline): 96 % of control
T/C (dose: 3.12 mg/kg/injection, schedule: Q01DX009 (ip), vehicle: saline): 96 % of control
T/C (dose: 6.25 mg/kg/injection, schedule: Q01DX009 (ip), vehicle: saline): 99 % of control
T/C (dose: 12.5 mg/kg/injection, schedule: Q01DX009 (ip), vehicle: saline): 88 % of control
T/C [9]: 88 % of control
T/C (dose: 25.0 mg/kg/injection, schedule: Q04DX003 (ip), vehicle: saline): 96 % of control
T/C [7]: 97 % of control and 109 % of control
T/C [10]: 107 % of control
T/C [8]: 96 % of control
T/C [11]: 87 % of control
T/C [13]: 94 % of control
T/C [12]: 103 % of control
T/C [14]: 90 % of control
T/C (dose: 400.0 mg/kg/injection, schedule: Q04DX003 (ip), vehicle: saline): 100 % of control

COc1cc(OC)cc(-c2n[se]c(-c3cc(OC)cc(OC)c3)n2)c1
T/C (dose: 0.19 mg/kg/injection, schedule: Q01DX009 (ip), vehicle: saline with Tween-80): 114 % of control
T/C (dose: 0.39 mg/kg/injection, schedule: Q01DX009 (ip), vehicle: saline with Tween-80): 98 % of control
T/C (dose: 0.78 mg/kg/injection, schedule: Q01DX009 (ip), vehicle: saline with Tween-80): 104 % of control
T/C (dose: 1.56 mg/kg/injection, schedule: Q01DX009 (ip), vehicle: saline with Tween-80): 107 % of control
